# Key:
# [1] = test system: Com21 synthetic gut community; experiment: community biomass OD578 after 24 h drug treatment relative to untreated (fraction of untreated control); higher = more community growth; conditions: community: Com21 (Com20 + E. coli ED1a)
# Procedure: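 Com21 (Com20 plus E. coli ED1a) was treated with drug for 24 h under anaerobic conditions in mGAM. Community OD578 was then measured and normalised to untreated Com21; mean of 3 biological replicates.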
# Dorea formicigenerans = experiment: IC25 growth inhibition; higher = less potent
# In short: (§1)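 Overnight monocultures grown in mGAM were moved into pre-reduced plates containing twofold drug dilutions, at a starting OD578 of 0.01 with 1% DMSO (or water). Plates were kept anaerobic and read hourly at OD578 in a plate reader, with at least three biological replicates. For each concentration, the median area under the growth curve was made monotonic, and IC25 was the lowest concentration whose median fell below a cutoff, reported as a tested interval. That cutoff was 0.75.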
# [2] = test system: Yersinia pseudotuberculosis; experiment: IC25 growth inhibition; higher = less potent
# In short: as §1
# [3] = test system: Fusobacterium nucleatum subsp. Nucleatum; experiment: IC25 growth inhibition; higher = less potent
# In short: as §1
# Streptococcus salivarius = experiment: IC25 growth inhibition; higher = less potent
# In short: as §1
# Vibrio cholerae = experiment: IC25 growth inhibition; higher = less potent
# In short: as §1
# [4] = test system: Streptococcus parasanguinis; experiment: IC25 growth inhibition; higher = less potent
# In short: as §1
# Clostridium ramosum = experiment: IC25 growth inhibition; higher = less potent
# In short: as §1
# Bacteroides uniformis = experiment: IC25 growth inhibition; higher = less potent
# In short: as §1
# Roseburia intestinalis = experiment: IC25 growth inhibition; higher = less potent
# In short: as §1
# Clostridium perfringens = experiment: IC25 growth inhibition; higher = less potent
# In short: as §1
# [5] = test system: Bacteroides thetaiotaomicron; experiment: IC25 growth inhibition; higher = less potent
# In short: as §1
# Parabacteroides merdae = experiment: IC25 growth inhibition; higher = less potent
# In short: as §1
# Shigella flexneri = experiment: IC25 growth inhibition; higher = less potent
# In short: as §1
# Ruminococcus gnavus = experiment: IC25 growth inhibition; higher = less potent
# In short: as §1
# [6] = test system: Clostridium saccharolyticum; experiment: IC25 growth inhibition; higher = less potent
# In short: as §1
# Bacteroides vulgatus = experiment: IC25 growth inhibition; higher = less potent
# In short: as §1
# Coprococcus comes = experiment: IC25 growth inhibition; higher = less potent
# In short: as §1
# Bacteroides fragilis NT = experiment: IC25 growth inhibition; higher = less potent
# In short: as §1
# [7] = test system: Yersinia enterocolitica WA-314; experiment: IC25 growth inhibition; higher = less potent
# In short: as §1
# Clostridium bolteae = experiment: IC25 growth inhibition; higher = less potent
# In short: as §1
# Eubacterium rectale = experiment: IC25 growth inhibition; higher = less potent
# In short: as §1
# Collinsella aerofaciens = experiment: IC25 growth inhibition; higher = less potent
# In short: as §1
# Escherichia coli ED1a = experiment: IC25 growth inhibition; higher = less potent
# In short: as §1
# [8] = test system: Salmonella enterica typhimurium; experiment: IC25 growth inhibition; higher = less potent
# In short: as §1
# 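Wherever IC25 growth inhibition is given: lowest concentration where monotonic median growth AUC falls below 0.75 of drug-free control.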
Structure (SMILES),community biomass OD578 ([1]; drug pretreatment concentration 10 µM),community biomass OD578 ([1]; drug pretreatment concentration 20 µM),community biomass OD578 ([1]; drug pretreatment concentration 40 µM),community biomass OD578 ([1]; drug pretreatment concentration 80 µM),community biomass OD578 ([1]; drug pretreatment concentration 160 µM),IC25 growth inhibition (Dorea formicigenerans) [µM],IC25 growth inhibition [2] [µM],IC25 growth inhibition [3] [µM],IC25 growth inhibition (Streptococcus salivarius) [µM],IC25 growth inhibition (Vibrio cholerae) [µM],IC25 growth inhibition [4] [µM],IC25 growth inhibition (Clostridium ramosum) [µM],IC25 growth inhibition (Bacteroides uniformis) [µM],IC25 growth inhibition (Roseburia intestinalis) [µM],IC25 growth inhibition (Clostridium perfringens) [µM],IC25 growth inhibition [5] [µM],IC25 growth inhibition (Parabacteroides merdae) [µM],IC25 growth inhibition (Shigella flexneri) [µM],IC25 growth inhibition (Ruminococcus gnavus) [µM],IC25 growth inhibition [6] [µM],IC25 growth inhibition (Bacteroides vulgatus) [µM],IC25 growth inhibition (Coprococcus comes) [µM],IC25 growth inhibition (Bacteroides fragilis NT) [µM],IC25 growth inhibition [7] [µM],IC25 growth inhibition (Clostridium bolteae) [µM],IC25 growth inhibition (Eubacterium rectale) [µM],IC25 growth inhibition (Collinsella aerofaciens) [µM],IC25 growth inhibition (Escherichia coli ED1a) [µM],IC25 growth inhibition [8] [µM]
Cc1c(N(C)CS(=O)(=O)O)c(=O)n(-c2ccccc2)n1C [Metamizole],1,0.981,1.01,1,0.994,–,–,–,–,–,–,–,–,–,–,–,–,–,–,–,–,–,–,–,–,–,–,–,–
Cc1ncc([N+](=O)[O-])n1CCO [Metronidazol],–,–,–,–,–,< 1.25,≤ 160,< 1.25,> 160,≤ 160,≤ 160,< 1.25,< 1.25,< 1.25,< 1.25,< 1.25,< 1.25,> 160,< 1.25,< 1.25,< 1.25,< 1.25,< 1.25,> 160,< 1.25,< 1.25,< 1.25,> 160,–
CC(C)(O)c1ccccc1CC[C@@H](SCC1(CC(=O)O)CC1)c1cccc(/C=C/c2ccc3ccc(Cl)cc3n2)c1 [Montelukast],–,–,–,–,–,> 80,> 20,> 80,≤ 5,> 20,≤ 10,> 10,> 80,≤ 10,≤ 5,> 80,> 80,> 20,> 80,> 10,> 80,> 80,> 40,> 10,> 40,≤ 10,> 20,> 160,> 10
CCn1cc(C(=O)O)c(=O)c2ccc(C)nc21 [Nalidixic Acid],–,–,–,–,–,> 160,≤ 2.5,≤ 160,> 160,< 1.25,> 160,≤ 160,≤ 160,> 160,≤ 20,≤ 160,≤ 80,≤ 2.5,> 160,> 160,> 160,> 160,≤ 160,> 160,> 160,> 160,> 160,≤ 5,≤ 5
CCn1cc(C(=O)O)c(=O)c2cc(F)c(N3CCNCC3)cc21 [Norfloxacin],–,–,–,–,–,≤ 10,≤ 10,≤ 20,≤ 10,< 1.25,≤ 20,≤ 160,≤ 20,≤ 160,≤ 2.5,≤ 80,≤ 40,< 1.25,≤ 10,≤ 40,≤ 80,≤ 20,≤ 80,≤ 10,≤ 20,≤ 40,≤ 10,< 1.25,< 1.25
CO[C@@H]1[C@@H](OC(N)=O)[C@@H](O)[C@H](Oc2ccc3c(O)c(NC(=O)c4ccc(O)c(CC=C(C)C)c4)c(=O)oc3c2C)OC1(C)C [Novobiocin],–,–,–,–,–,< 1.25,≤ 20,≤ 5,< 1.25,< 1.25,< 1.25,≤ 5,< 1.25,< 1.25,≤ 5,≤ 20,< 1.25,≤ 2.5,< 1.25,≤ 10,< 1.25,< 1.25,≤ 20,≤ 20,< 1.25,≤ 5,< 1.25,≤ 5,≤ 40
N=C(N)c1ccc(OCCCCCOc2ccc(C(=N)N)cc2)cc1 [Pentamidine Isothionate],–,–,–,–,–,< 1.25,≤ 160,≤ 10,≤ 10,> 160,≤ 10,≤ 40,≤ 20,≤ 5,≤ 2.5,≤ 20,≤ 5,≤ 160,≤ 2.5,≤ 10,≤ 20,< 1.25,≤ 80,> 80,> 160,≤ 5,≤ 10,> 160,–
CN[C@H]1CC[C@@H](c2ccc(Cl)c(Cl)c2)c2ccccc21 [Sertraline],–,–,–,–,–,≤ 80,≤ 160,≤ 160,≤ 80,≤ 80,≤ 160,≤ 80,≤ 160,≤ 40,≤ 80,≤ 80,≤ 80,≤ 160,≤ 40,≤ 80,> 160,≤ 160,≤ 160,≤ 80,≤ 160,≤ 10,≤ 80,≤ 160,> 160
O=C(O)Cc1cc(I)c(Oc2ccc(O)c(I)c2)c(I)c1 [Tiratricol],–,–,–,–,–,≤ 80,> 160,≤ 40,≤ 10,≤ 80,≤ 20,≤ 20,≤ 80,≤ 40,≤ 20,≤ 80,≤ 40,> 160,≤ 20,≤ 20,≤ 40,≤ 20,≤ 80,> 160,≤ 80,≤ 160,≤ 80,> 160,> 160
